# According to ChEMBL document CHEMBL1155275, “Synthesis and characterization of 6-deoxy-6-fluoro-D-fructose as a potential compound for imaging breast cancer with PET” (Bioorg Med Chem, 2009):
# pKi: −log10 of the molar value.
# Key:
# Format in all cases: cell-based
# [1] = biological target: T1, Solute carrier family 2, facilitated glucose transporter member 2 (Homo sapiens, UniProt P11168); assay: Inhibition of GLUT2-mediated [14C]D-glucose uptake in human MCF7 cells by liquid scintillation counting
# T1 sequence (P11168 whole entry): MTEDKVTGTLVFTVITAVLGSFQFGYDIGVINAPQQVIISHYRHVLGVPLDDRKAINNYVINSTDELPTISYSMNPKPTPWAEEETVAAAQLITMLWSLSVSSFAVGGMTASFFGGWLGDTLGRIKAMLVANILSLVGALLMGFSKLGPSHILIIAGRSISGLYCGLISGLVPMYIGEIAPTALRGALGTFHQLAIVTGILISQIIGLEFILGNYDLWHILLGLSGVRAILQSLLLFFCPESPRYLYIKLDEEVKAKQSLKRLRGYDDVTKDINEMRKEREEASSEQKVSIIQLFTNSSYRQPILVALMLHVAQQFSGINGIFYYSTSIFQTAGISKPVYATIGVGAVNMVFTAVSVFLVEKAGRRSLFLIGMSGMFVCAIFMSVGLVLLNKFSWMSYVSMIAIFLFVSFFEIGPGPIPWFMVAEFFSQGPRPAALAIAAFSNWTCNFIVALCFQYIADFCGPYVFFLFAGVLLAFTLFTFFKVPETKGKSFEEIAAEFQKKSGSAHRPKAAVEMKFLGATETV
# [2] = biological target: T1, Solute carrier family 2, facilitated glucose transporter member 2; assay: Inhibition of GLUT2-mediated [14C]D-glucose uptake in human MDA-MB-231 cells by liquid scintillation counting
# [3] = biological target: T2, Solute carrier family 2, facilitated glucose transporter member 5 (Homo sapiens, UniProt P22732); assay: Inhibition of GLUT5-mediated [14C]D-fructose uptake in human MCF7 cells by liquid scintillation counting
# T2 sequence (P22732 whole entry): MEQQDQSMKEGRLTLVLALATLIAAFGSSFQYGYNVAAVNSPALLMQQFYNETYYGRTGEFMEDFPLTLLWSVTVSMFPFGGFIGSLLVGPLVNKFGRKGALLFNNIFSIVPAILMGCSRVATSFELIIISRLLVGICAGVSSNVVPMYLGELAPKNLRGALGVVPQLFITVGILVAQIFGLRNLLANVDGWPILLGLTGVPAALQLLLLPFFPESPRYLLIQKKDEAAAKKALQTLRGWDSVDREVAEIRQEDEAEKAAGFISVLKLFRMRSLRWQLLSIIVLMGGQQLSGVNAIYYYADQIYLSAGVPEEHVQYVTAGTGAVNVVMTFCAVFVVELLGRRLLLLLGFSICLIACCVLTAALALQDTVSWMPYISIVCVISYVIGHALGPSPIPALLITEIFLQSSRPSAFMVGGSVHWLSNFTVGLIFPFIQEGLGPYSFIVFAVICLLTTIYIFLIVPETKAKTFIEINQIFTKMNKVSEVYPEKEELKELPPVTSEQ
# [4] = biological target: T2, Solute carrier family 2, facilitated glucose transporter member 5; assay: Inhibition of GLUT5-mediated [14C]D-fructose uptake in human MDA-MB-231 cells by liquid scintillation counting
smiles,measurement,setting,value
OCC1(O)O[C@H](CF)[C@@H](O)[C@@H]1O (some centres undefined),pKi,[1],3.04
same,pKi,[2],2.21
same,pKi,[3],3.81
same,pKi,[4],3.48
